Like-named read-outs stand apart in the source and are kept apart here.
What was measured:
[1] = Cytotoxicity assay in MT-4 cells; assay type: cell-based; details: human, uninfected MT-4 cells, Cell Titer Glo
Experimental: (§1) Compounds were tested in a high-throughput 384-well assay format for their ability to inhibit the replication of HIV-1 (IIIB) in MT-4 cells. Compounds were serially diluted (1:3) in DMSO on 384-well polypropylene plates and further diluted 200-fold into complete RPMI media (10% FBS, 1% P/S) using the Biotek Micro Flow and Labcyte ECHO acoustic dispenser. Each plate contained up to 8 test compounds, with negative (No Drug Control) and 5 μM AZT positive controls. MT-4 cells were pre-infected with 10 μL of either RPMI (mock-infected) or a fresh 1:250 dilution of HIV-1 IIIB concentrated virus stock. Infected and uninfected MT-4 cells were further diluted in complete RPMI media and added to each plate using a Micro Flow dispenser. After 5 days incubation in a humidified and temperature controlled incubator (37° C.), Cell Titer Glo (Promega) was added to the assay plates and chemiluminescence read using an Envision plate-reader. EC50 values were defined as the compound concentration that causes a 50% decrease in luminescence signal, and were calculated using a sigmoidal dose-response model to generate curve fits. Cytotoxicity Assay in MT-4 Cells Assays were performed as above except uninfected MT-4 cells were added to each well containing test compound. In addition, 10 μM puromycin was added to the last column of each assay plate to assess a base level of cytotoxicity.

[2] = test system: pLai RLuc reporter virus in MT-4 cells; test: HIV MT-4 serum shift antiviral reporter assay; assay type: cell-based; details: Human immunodeficiency virus 1, MT4, 72 h, read-out: RLUC CCM
Experimental: Example 48: HIV MT-4 Serum Shift Antiviral Reporter Assay
To quantify the amount of protein binding to human serum, compounds were serially diluted (1:3) in DMSO and acoustically transferred onto 384-well assay plates via a Labcyte ECHO robot. Each plate contained up to 8 test compounds, including negative and positive controls, (DMSO, 5 μM AZT respectively). Assay plates were prepared in duplicate, and tested in either CCM (cell culture media) or HS/CCM (human serum/cell culture media). MT-4 cells were first pre-infected with pLai RLuc reporter virus for 2 h at 37° C., then further diluted in either CCM (RPMI media, 10% FBS, 1% P/S) or HS/CCM (RPMI media, 10% FBS, 50% HS, 1% P/S), and subsequently added to each plate using a Biotek Micro Flow dispenser. After a 72-h incubation in a humidified and temperature controlled incubator (37° C.), Renilla Glo (Promega) was added to all assay plates and chemiluminescence read using an Envision plate-reader. EC50 values were defined as the compound concentration that causes a 50% decrease in luminescence signal, and were calculated using a sigmoidal dose-response model to generate curve fits. To determine the amount of protein binding, EC50 fold shifts (or EC50 shifts) were calculated by dividing EC50 (HS/CCM)/EC50 (CCM). […]

[3] = test system: HIV-1 (IIIB) in MT-4 cells; test: HIV MT-4 antiviral assay; assay type: cell-based; details: Human immunodeficiency virus 1, MT4, 120 h, 5 days, Cell Titer Glo
Experimental: Example 47: HIV MT-4 Antiviral and Cytotoxicity Assay
Antiviral Assay in MT-4 Cells
as §1, with “fits.” for “fits. Cytotoxicity Assay in MT-4 Cells Assays were performed as above except uninfected MT-4 cells were added to each well containing test compound. In addition, 10 μM puromycin was added to the last column of each assay plate to assess a base level of cytotoxicity.”

[4] = High throughput microsomal stability assay (human liver microsomes); assay type: in vitro ADME; details: for HLM stability: human liver microsomes, 1 uM compound, NADPH + UDPGA cofactors, 37 C
Experimental: Example 49: High Throughput Microsomal Stability Assay
Metabolic stability of compounds was assessed using Human, or Rat Liver Microsomal assays (Corning). In this assay, 10 nL compounds at concentration of 1 mM in 100% DMSO were dispensed into 384-well polypropylene plates using the Echo 550 acoustic liquid dispenser (Labcyte®). Each plate contained 384 wells with a single test compound in each well.
A solution of human (Corning® Gentest™ Human Mixed Pooled Microsomes), or rat (Corning® Gentest™ Rat [Sprague-Dawley] Pooled Liver Microsomes) liver microsomes at 2 mg/ml in 100 mM K2HPO4/KH2PO4 pH 7.4 with Alamethicin from Trichoderma viride (Sigma-Aldrich) 0.0225 mg/ml were incubated on ice for 15 minutes. 5 uL of this solution was added to individual wells following 15 minute incubation at room temperature; and supplemented with 5 uL NADPH Regenerating Solution of cofactors (Corning® Gentest™ UGT Reaction Mix) containing 100 mM K2HPO4/KH2PO4 pH 7.4, 2.6 mM NADP+, 6.6 mM glucose-6-phosphate, 6.6 mM MgCl2, 0.8 U/mL glucose-6-phosphate dehydrogenase, 0.1 mM Sodium Citrate, 6.8 mM uridine diphosphate-glucuronic acid. Final concentration of analyte compounds at the beginning of the reaction was 1 uM. The reactions were incubated at 37° C. and time points of 0, 5, 15, 30, 40, 50, 60, and 70 minutes were collected for further analysis. Background data were collected using reactions without analyte compounds.
Upon collection of the reaction time points, samples were quenched with 30 uL of a solution of 72% acetonitrile, 8% methanol, 0.1% formic acid, 19.9% water, and internal standard (IS). Reaction plates were span in a centrifuge at speed of 4,000 rcf for 30 minutes and 4° C., following a dilution of the 10 uL quenched reaction into 40 uL de-ionized water, yielding assay plates.
Assay plates were analyzed using solid-state extraction coupled with quadrupole time-of-flight mass spectrometer, using Agilent QToF 6530 RapidFire 360 system, with C4 type A solid state cartridges. Analysis was performed in either positive or negative ionization modes. Mobile phases contained 0.1% formic acid in water for loading analytes onto solid state extraction cartridges, and 0.1% formic acid in acetonitrile for elution into mass spectrometer in positive ionization mode, or 0.1% acetic acid in water for loading and 0.1% acetic acid in acetonitrile for extraction in negative ionization mode. Peak-area ratios of integrated counts for individual compounds to IS were plotted as semi-logarithmic chart of log vs time. Initial, linear portion of decay was fitted to a linear regression equation to derive half time of a compound decay.
Pharmacological parameters for an analyte compound metabolism were calculated using the following equations: […]
Where. Calculation of In Vitro Intrinsic Clearance
Concentration refers to the protein concentration (mg/mL) in the reaction.
Calculation of In Vivo Intrinsic Clearance
This scales the in vitro intrinsic clearance up to the value that would be predicted for the entire mass of liver tissue (but with no restriction by blood flow). The value depends upon the size of the liver (species-dependent) and the yield of microsomal protein as appropriate (assumed to be species-independent).
Calculation of Predicted Clearance
Hepatic clearance will depend upon the inter-relationship of intrinsic clearance and hepatic blood flow and can be predicted from in vitro data using a variety of approaches.
Calculation of Hepatic Extraction
This is simply the predicted clearance expressed as a proportion of hepatic blood flow. E=CL/QH*100%
Intrinsic clearance of the instant compounds, as well as for reference compounds A-F, were calculated following the procedure above.

Row | Structure (SMILES) | CC50 at 5 days [1] | EC50 [2] | EC50 [3] | HLM stability [4] | MS Cl improvement ([4]; relative to compound B) | MS Cl improvement ([4]; relative to compound C) | MS Cl improvement ([4]; relative to compound D) | MS Cl improvement [4]
1 | CO[C@H]1CC[C@H](C)N2C[C@H]1n1cc(C(=O)NCc3ccc(F)cc3F)c(=O)c(O)c1C2=O [Example 3, (3S,6S,7R)—N-(2,4-difluorobenzyl)-12-hydroxy-6-methoxy-3-methyl-1,11-dioxo-1,4,5,6,7,11-hexahydro-3H-2,7-methanopyrido[1,2-a][1,4]diazonine-10-carboxamide] | 16.5 µM | 0.42 nM | 1.5 nM | 0.15 L/h/kg | 3.2 times relative to compound B | – | – | –
2 | CO[C@@H]1C=C[C@H](C)N2C[C@H]1n1cc(C(=O)NCc3c(F)cc(F)cc3F)c(=O)c(O)c1C2=O [Example 4, (3S,6R,7R)-12-hydroxy-6-methoxy-3-methyl-1,11-dioxo-N-(2,4,6-trifluorobenzyl)-1,6,7,11-tetrahydro-3H-2,7-methanopyrido[1,2-a][1,4]diazonine-10-carboxamide] | 11.2 µM | 0.34 nM | 1.1 nM | 0.14 L/h/kg | – | 3.6 times relative to compound C | – | –
3 | C[C@H]1CC[C@@H](O)[C@H]2CN1C(=O)c1c(O)c(=O)c(C(=O)NCc3c(F)cc(F)cc3F)cn12 [Example 5, (3S,6R,7R)-6,12-dihydroxy-3-methyl-1,11-dioxo-N-(2,4,6-trifluorobenzyl)-1,4,5,6,7,11-hexahydro-3H-2,7-methanopyrido[1,2-a][1,4]diazonine-10-carboxamide] | 50 µM | 0.71 nM | 1.8 nM | 0.20 L/h/kg | – | – | – | –
4 | CO[C@@H]1CC[C@H](C)N2C[C@H]1n1cc(C(=O)NCc3c(F)cc(F)cc3F)c(=O)c(O)c1C2=O [Example 6, (3S,6R,7R)-12-hydroxy-6-methoxy-3-methyl-1,11-dioxo-N-(2,4,6-trifluorobenzyl)-1,4,5,6,7,11-hexahydro-3H-2,7-methanopyrido[1,2-a][1,4]diazonine-10-carboxamide] | 13 µM | 0.5 nM | 1.4 nM | 0.29 L/h/kg | – | – | 2.3 times relative to compound D | –
5 | CO[C@@H]1C=C[C@H](C)N2C[C@H]1n1cc(C(=O)NCc3ccc(F)cc3F)c(=O)c(O)c1C2=O [Example 7, (3S,6R,7R)—N-(2,4-difluorobenzyl)-12-hydroxy-6-methoxy-3-methyl-1,11-dioxo-1,6,7,11-tetrahydro-3H-2,7-methanopyrido[1,2-a][1,4]diazonine-10-carboxamide] | 9.91 µM | 0.29 nM | 1.2 nM | 0.20 L/h/kg | – | – | – | 2.0 times relative to compound E
6 | CO[C@H]1C=C[C@H](C)N2C[C@H]1n1cc(C(=O)NCc3ccc(F)c(Cl)c3F)c(=O)c(O)c1C2=O [Example 9, (3S,6S,7R)—N-(3-chloro-2,4-difluorobenzyl)-12-hydroxy-6-methoxy-3-methyl-1,11-dioxo-1,6,7,11-tetrahydro-3H-2,7-methanopyrido[1,2-a][1,4]diazonine-10-carboxamide] | 4.27 µM | 0.42 nM | 1 nM | 0.48 L/h/kg | – | – | – | –
7 | CO[C@@H]1C=C[C@H](C)N2C[C@H]1n1cc(C(=O)NCc3ccc(F)c(Cl)c3F)c(=O)c(O)c1C2=O [Example 10, (3S,6R,7R)—N-(3-chloro-2,4-difluorobenzyl)-12-hydroxy-6-methoxy-3-methyl-1,11-dioxo-1,6,7,11-tetrahydro-3H-2,7-methanopyrido[1,2-a][1,4]diazonine-10-carboxamide] | 4.01 µM | 0.28 nM | 1.2 nM | 0.40 L/h/kg | – | – | – | –
8 | C[C@H]1CC[C@](C)(O)[C@H]2CN1C(=O)c1c(O)c(=O)c(C(=O)NCc3c(F)cc(F)cc3F)cn12 [Example 11, (1R,10S,13S)-6,13-dihydroxy-10,13-dimethyl-5,8-dioxo-N-[(2,4,6-trifluorophenyl)methyl]-2,9-diazatricyclo[7.4.1.02,7]tetradeca-3,6-diene-4-carboxamide] | 38.7 µM | 0.84 nM | 1.5 nM | 0.25 L/h/kg | – | – | 2.7 times relative to compound D | –
9 | C[C@H]1C=C[C@@H](Cl)[C@H]2CN1C(=O)c1c(O)c(=O)c(C(=O)NCc3ccc(F)cc3F)cn12 [Example 13, (3S,6R,7R)-6-chloro-N-(2,4-difluorobenzyl)-12-hydroxy-3-methyl-1,11-dioxo-1,6,7,11-tetrahydro-3H-2,7-methanopyrido[1,2-a][1,4]diazonine-10-carboxamide] | 15.6 µM | 0.55 nM | 1.5 nM | 0.26 L/h/kg | – | – | – | 1.5 times relative to compound E

Source: US12421235B2, “Bridged tricyclic carbamoylpyridone compounds and uses thereof” (Gilead Sciences, Inc., priority 2020, dated 2025)
